Measurements as given in patent US9810687B2, “Nanocomposites and methods of making same” (BOARD OF TRUSTEES OF THE UNIVERSITY OF ARKANSAS, priority 2013, dated 2017).

Key:
[1] = tested on: human pancreatic cancer cell line Panc-1; test: Anticancer/apoptotic effects of PTL, DMAPT and their fGn complexes; conditions: drug alone or as mixture with fGn
Experimental: A water-soluble PTL analog, dimethylaminoparthenolide (DMAPT), was also examined for comparison with the anticancer efficacy of our PTL-fGn complex.
PTL was obtained from Sigma-Aldrich (USA). […] PTL and DMAPT were dissolved in DMSO to create 10 mM stock solutions. To create the PTL-fGn and DMAPT-fGn complexes, the drug was added to fGn solution in media (final drug-fGn complex concentrations were 1, 10, 20, 30, 50, and 100 mM drug and 10 mg/ml fGn), sonicated for 1 h, and then stored at 4° C. before being incubated with cancer cell, such as, Panc-1 cells, or being delivered to a patient.

Panc-1 = test: Cytotoxicity of GA delivered by Gn and SWCNT, pancreatic cancer cells; type: cell-based, human; conditions: pancreatic cancer cells in vitro
Experimental: (§1) In this example, Gn and SWCNT were used to deliver the natural low-toxicity drug GA to breast and pancreatic cancer cells in vitro, and the effectiveness of this complex in suppressing cellular integrity was assessed. Cytotoxicity was assessed by measuring lactate dehydrogenase release, mitochondria dehydrogenase activity, mitochondrial membrane depolarization, DNA fragmentation, intracellular lipid content, and membrane permeability/caspase activity. […] This analysis represents a first step toward assessing their effectiveness in more complex, targeted, nanodelivery systems.
(§2) Gn and SWCNT (10 μg/ml) were mixed with GA (0.5, 0.75 and 1 μg/ml) to be described as GA+Gn and GA+SWCNT. First, the samples were vortexed at a high speed for at least 4 h to allow the drug to bind to the nanomaterials via π-π stacking. […] The loading concentrations of the GA on Gn and SWCNT were determined by UV-Vis absorbance at 360 nm measured using a Shimadzu UV-3600 spectrophotometer (Shimadzu Scientific Instruments, Colombia, Me., USA).
(§3) The amount of drug loaded was calculated by peak absorbance at 360 nm after subtracting the background of absorbance from Gn and SWCNT. It is determined that, after vortexing, 98% of the free GA was bound to the Gn (GA−Gn=0.98: 10 μg/ml) and that 88% was bound to the SWCNT (GA−SWCNT=0.88: 10 μg/ml).

MCF-7 = test: Cytotoxicity of GA delivered by Gn and SWCNT, breast cancer cells; type: cell-based, human; conditions: breast cancer cells in vitro
Experimental: as §1, §2, §3

C/C1=C\CC[C@@]2(C)O[C@@H]2[C@H]2OC(=O)[C@H](CN(C)C)[C@@H]2CC1 [DMAPT, dimethylaminoparthenolide]
IC50 [1]: significantly higher than that for PTL-fGn

CC(C)=CCC[C@]1(C)C=Cc2c(O)c3c(c(CC=C(C)C)c2O1)O[C@]12C(=C[C@@H]4C[C@H]1C(C)(C)O[C@@]2(C/C=C(/C)C(=O)O)C4=O)C3=O [GA, Gambogic Acid]
antiproliferative effects upon nanodelivery (Panc-1): significantly enhanced | antiproliferative effects upon nanodelivery (MCF-7): significantly enhanced
